In patent publication US8802595B2, “Use of prolines for improving growth and/or yield” (Los Alamos National Security, LLC, priority 2005, dated 2014):

How the values were obtained:
Type in all cases: in vivo
white clover = experiment: Herbicidal killing rate on white clover (Example 8); details: recommended field strength application, 25 plants each treatment
Description: (§1) Two dicotyledenous plants, white clover and morning glory were treated with the manufacturer's recommended field strength application and the killing rate was measured. Growing morning glory and clover plants (25 each treatment) treated with either 2,4-D alone or a mixture of 2,4-D and pyroglutamate were killed with the same efficacy, 100%.

oats [1] = experiment: Mitigation by pyroglutamate of 2,4-D-induced stress in oats (Example 7); details: oat seedlings in greenhouse, 2,4-D at ¼ field strength, pyroglutamate 13.5 g/L, with surfactant/wetting agent
Description: A test was conducted to measure mitigation by pyroglutamate of 2,4-D-induced stress in a monocotyledonous crop plant, oats.
Growing oat plants were treated with a mixture of pyroglutamate (isomer ratio 85:15 of L:D) and 2,4-D and their growth monitored. Oat seedlings, growing vigorously in a greenhouse, were treated with a mixture of 2,4-D and pyroglutamate (13.5 g/L). The 2,4-D was included in the mixture at ¼ of the recommended field strength; a surfactant/wetting agent (Gly Surf P) was also used. The treatment solution was applied with a backpack R&D sprayer using 2 passes over the plants to assure that all plants received treatment solution. It was estimated that this simulated a ½ strength field dose. These plants were compared with plants treated with the herbicide and surfactant/wetting agent as well as with controls treated only with the surfactant/wetting agent (controls).

morning glory = experiment: Herbicidal killing rate on morning glory (Example 8); details: recommended field strength application, 25 plants each treatment
Description: as §1

oats [2] = experiment: Oat tillers with flag leaves emerged at day 28 post-treatment (Example 2)
Description: The oats from example 1 were also monitored for their number of tillers with flag leaves emerged at day 28 post-treatment. This parameter relates to potential for grain yield. Table 2 contains the resultant tillers with flag leaves at 28 days for the same series of isomer mixtures.

[3] = test system: Commercial field grown table grapes; experiment: Yield of field grown table grapes sprayed twice (Example 6); details: 25 gm per acre
Description: Commercial field grown table grapes were at sprayed twice the first time at 6-12″ of new vine growth and the second spraying 2 months later. The pyroglutamate composition (isomer ratio 85:15 of L:D) was applied at a rate of 25 gm per acre.

[4] = test system: Commercial field grown wheat; experiment: Grain yield of field grown wheat sprayed at flag leaf stage (Example 5); details: wheat sprayed one time at flag leaf stage, harvested at maturity
Description: Commercial field grown wheat was sprayed one time with the pyroglutamate composition (isomer ratio 85:15 of L:D) at the flag leaf stage using the same treatment solution as described in our other plant treatments. Grain was harvested at maturity; the treated plots yielded 0.65 T/hectare more (7% increase) grain (seed) than the untreated plots.

O=C(O)COc1ccc(Cl)cc1Cl [2,4-D, 2,4-dichlorophenoxy acetic acid]
killing efficacy (white clover): 100% | average plant fresh weight (oats [1]): 2.29 g | killing efficacy (morning glory): 100%

O=C(O)[C@@H]1CCC(O)=N1 [Series 1, pyroglutamate]
Tillers with flag leaves (oats [2]; listed as 1): 20

O=C(O)[C@@H]1CCC(O)=N1 [Series 2, pyroglutamate, reference compound]
Tillers with flag leaves (oats [2]; listed as 2): 24

O=C(O)[C@@H]1CCC(O)=N1 [Series 3, pyroglutamate]
Tillers with flag leaves (oats [2]; listed as 3): 17

O=C(O)[C@@H]1CCC(O)=N1 [Series 4, pyroglutamate]
Tillers with flag leaves (oats [2]; listed as 4): 34

O=C(O)[C@@H]1CCC(O)=N1 [Series 5, pyroglutamate]
Tillers with flag leaves (oats [2]; listed as 5): 33

O=C(O)[C@@H]1CCC(O)=N1 [Series 6, pyroglutamate]
Tillers with flag leaves (oats [2]; listed as 6): 37

O=C(O)[C@@H]1CCC(O)=N1 [Series 7, pyroglutamate]
Tillers with flag leaves (oats [2]; listed as 7): 29

O=C(O)[C@@H]1CCC(O)=N1 [Series 8, pyroglutamate]
Tillers with flag leaves (oats [2]; listed as 8): 31

O=C(O)[C@@H]1CCC(O)=N1 [Series 9, pyroglutamate]
Tillers with flag leaves (oats [2]; listed as 9): 23

O=C(O)[C@@H]1CCC(O)=N1 [Series 10, pyroglutamate]
Tillers with flag leaves (oats [2]; listed as 10): 22

O=C(O)[C@@H]1CCC(O)=N1 [Series 11, pyroglutamate]
Tillers with flag leaves (oats [2]; listed as 11): 26

O=C(O)[C@@H]1CCC(O)=N1 [Series 12, pyroglutamate]
Tillers with flag leaves (oats [2]; listed as 12): 24

O=C(O)[C@@H]1CCC(O)=N1 [pyroglutamate composition (isomer ratio 85:15 of L:D), pyroglutamate]
greater yield of harvestable grapes than untreated plots [3]: 13.5% | yield of harvestable grapes [3]: 1045 standard boxes | grain (seed) yield more than untreated plots [4]: 0.65 T/hectare | increase in grain yield versus untreated plots [4]: 7%
